Several values for one entry are separate records, joined by “and”; a condition that tells them apart may be missing. Equal entries are not always repeated. ± gives the uncertainty stated by the source.
Assay: xn = mol fraction of the nth substance listed

CCCCOC(=O)c1ccccc1 + CCCCCCC
viscosity [mPa·s], 101 kPa
Settings	x1 = 0.0994	x1 = 0.1959	x1 = 0.2964	x1 = 0.3986	x1 = 0.4963	x1 = 0.5965	x1 = 0.6954	x1 = 0.7986	x1 = 0.8973
298.15 K	0.457 ± 0.007	0.536 ± 0.007	0.645 ± 0.008	0.777 ± 0.008	0.95 ± 0.009	1.162 ± 0.011	1.411 ± 0.013	1.731 ± 0.015	2.122 ± 0.019
308.15 K	0.41 ± 0.007	0.476 ± 0.007	0.571 ± 0.007	0.686 ± 0.008	0.811 ± 0.009	0.978 ± 0.01	1.176 ± 0.011	1.413 ± 0.013	1.727 ± 0.015
318.15 K	0.368 ± 0.007	0.426 ± 0.007	0.501 ± 0.007	0.598 ± 0.008	0.697 ± 0.008	0.835 ± 0.009	0.991 ± 0.01	1.192 ± 0.011	1.426 ± 0.013

Nc1ccccc1 + c1ccccc1
Settings	viscosity [mPa·s]
298.15 K, 101 kPa, x1 = 0.1039	0.71 ± 0.037
298.15 K, 101 kPa, x1 = 0.2282	0.83 ± 0.042
298.15 K, 101 kPa, x1 = 0.3729	1.1 ± 0.054
298.15 K, 101 kPa, x1 = 0.4341	1.211 ± 0.059
298.15 K, 101 kPa, x1 = 0.5562	1.483 ± 0.071
298.15 K, 101 kPa, x1 = 0.6562	1.803 ± 0.084
298.15 K, 101 kPa, x1 = 0.7656	2.217 ± 0.1
298.15 K, 101 kPa, x1 = 0.8661	2.767 ± 0.13
298.15 K, 101 kPa, x1 = 0.9088	3.029 ± 0.14
298.15 K, 101 kPa, x2 = 0.01	3.64 ± 0.05
298.15 K, 101 kPa, x2 = 0.026	3.555 ± 0.048
298.15 K, 101 kPa, x2 = 0.12	2.895 ± 0.039
298.15 K, 101 kPa, x2 = 0.205	2.461 ± 0.033
298.15 K, 101 kPa, x2 = 0.304	2.022 ± 0.027
298.15 K, 101 kPa, x2 = 0.39	1.67 ± 0.02
298.15 K, 101 kPa, x2 = 0.468	1.448 ± 0.019
298.15 K, 101 kPa, x2 = 0.52	1.307 ± 0.017
298.15 K, 101 kPa, x2 = 0.626	1.1 ± 0.014
298.15 K, 101 kPa, x2 = 0.662	1.056 ± 0.014
298.15 K, 101 kPa, x2 = 0.794	0.861 ± 0.011
298.15 K, 101 kPa, x2 = 0.896	0.714 ± 0.009
298.15 K, 101.33 kPa, x1 = 0.2	0.78 ± 0.016
298.15 K, 101.33 kPa, x1 = 0.5	1.277 ± 0.026
298.15 K, 101.33 kPa, x2 = 0.25	2.458 ± 0.037
298.15 K, 101.33 kPa, x2 = 0.4	1.764 ± 0.026
298.15 K, 101.33 kPa, x2 = 0.5	1.427 ± 0.021
303.15 K, 101 kPa, x1 = 0.1039	0.657 ± 0.035
303.15 K, 101 kPa, x1 = 0.2282	0.781 ± 0.04
303.15 K, 101 kPa, x1 = 0.3729	0.965 ± 0.048
303.15 K, 101 kPa, x1 = 0.4341	1.093 ± 0.054
303.15 K, 101 kPa, x1 = 0.5562	1.371 ± 0.066
303.15 K, 101 kPa, x1 = 0.6562	1.648 ± 0.078
303.15 K, 101 kPa, x1 = 0.7656	1.991 ± 0.093
303.15 K, 101 kPa, x1 = 0.8661	2.495 ± 0.11
303.15 K, 101 kPa, x1 = 0.9088	2.745 ± 0.12
308.15 K, 101 kPa, x1 = 0.1019	0.5981 ± 0.024
308.15 K, 101 kPa, x1 = 0.1039	0.589 ± 0.032
308.15 K, 101 kPa, x1 = 0.1492	0.6532 ± 0.027
308.15 K, 101 kPa, x1 = 0.2282	0.736 ± 0.038
308.15 K, 101 kPa, x1 = 0.2326	0.728 ± 0.03
308.15 K, 101 kPa, x1 = 0.267	0.7545 ± 0.031
308.15 K, 101 kPa, x1 = 0.3462	0.8563 ± 0.035
308.15 K, 101 kPa, x1 = 0.3729	0.91 ± 0.046
308.15 K, 101 kPa, x1 = 0.4341	1.012 ± 0.05
308.15 K, 101 kPa, x1 = 0.4911	1.115 ± 0.045
308.15 K, 101 kPa, x1 = 0.5562	1.224 ± 0.059
308.15 K, 101 kPa, x1 = 0.6312	1.492 ± 0.061
308.15 K, 101 kPa, x1 = 0.6562	1.476 ± 0.07
308.15 K, 101 kPa, x1 = 0.68	1.59 ± 0.065
308.15 K, 101 kPa, x1 = 0.7615	1.835 ± 0.075
308.15 K, 101 kPa, x1 = 0.7656	1.79 ± 0.084
308.15 K, 101 kPa, x1 = 0.8499	2.128 ± 0.087
308.15 K, 101 kPa, x1 = 0.8661	2.179 ± 0.1
308.15 K, 101 kPa, x1 = 0.9088	2.443 ± 0.11
313.15 K, 101 kPa, x1 = 0.1039	0.562 ± 0.031
313.15 K, 101 kPa, x1 = 0.2282	0.689 ± 0.036
313.15 K, 101 kPa, x1 = 0.3729	0.842 ± 0.043
313.15 K, 101 kPa, x1 = 0.4341	0.928 ± 0.047
313.15 K, 101 kPa, x1 = 0.5562	1.124 ± 0.055
313.15 K, 101 kPa, x1 = 0.6562	1.337 ± 0.064
313.15 K, 101 kPa, x1 = 0.7656	1.587 ± 0.075
313.15 K, 101 kPa, x1 = 0.8661	1.93 ± 0.09
313.15 K, 101 kPa, x1 = 0.9088	2.103 ± 0.098
323.15 K, 101.33 kPa, x1 = 0.2	0.541 ± 0.011
323.15 K, 101.33 kPa, x1 = 0.5	0.792 ± 0.016

CCNCC + c1ccccc1
viscosity, 101.33 kPa
Settings	x1 = 0.2	x1 = 0.4	x1 = 0.5	x1 = 0.6	x1 = 0.8
293.15 K	0.522 ± 0.01 mPa·s and 0.522 ± 0.014 mPa·s	0.44 ± 0.012 mPa·s	0.411 ± 0.0082 mPa·s and 0.411 ± 0.011 mPa·s	0.387 ± 0.01 mPa·s	0.349 ± 0.009 mPa·s
303.15 K	0.463 ± 0.013 mPa·s	0.393 ± 0.011 mPa·s	0.367 ± 0.01 mPa·s	0.348 ± 0.009 mPa·s	0.314 ± 0.008 mPa·s
308.15 K	0.438 ± 0.0088 mPa·s and 0.438 ± 0.012 mPa·s	0.374 ± 0.01 mPa·s	0.35 ± 0.007 mPa·s and 0.35 ± 0.009 mPa·s	0.333 ± 0.009 mPa·s	0.298 ± 0.008 mPa·s

Oc1ccc2ccccc2c1 + CCCCO
viscosity [mPa·s], 101 kPa
Settings	x1 = 0.04	x1 = 0.08	x1 = 0.12	x1 = 0.16	x1 = 0.2
293.15 K	3.344 ± 0.075	3.751 ± 0.083	4.242 ± 0.093	4.879 ± 0.11	5.596 ± 0.12
303.15 K	2.529 ± 0.058	2.808 ± 0.063	3.17 ± 0.071	3.582 ± 0.08	4.024 ± 0.089
313.15 K	1.974 ± 0.046	2.175 ± 0.05	2.421 ± 0.055	2.751 ± 0.062	3.144 ± 0.07
323.15 K	1.592 ± 0.039	1.712 ± 0.041	1.882 ± 0.044	2.11 ± 0.049	2.374 ± 0.054

CCCBr + c1ccccc1
308.15 K, 101 kPa
Settings	viscosity [mPa·s]
x2 = 0.1021	0.4369 ± 0.0037
x2 = 0.2992	0.4373 ± 0.0036
x2 = 0.3987	0.4413 ± 0.0035
x2 = 0.5041	0.4461 ± 0.0035
x2 = 0.6028	0.4525 ± 0.0034
x2 = 0.7033	0.4619 ± 0.0034
x2 = 0.8414	0.478 ± 0.0035
x2 = 0.8979	0.4898 ± 0.0035
